Source: ChEMBL document CHEMBL1201862, “PubChem BioAssay data set” (2004)
The source made the active and inactive calls.

Key:
[1] = Luminescence-based dose response cell-based high throughput screening assay for cytotoxic compounds using the IEC-6 intestinal epithelial cell line. [Related pubchem assays: 1858 (Summary AID.), 1825 (Counterscreen.), 1907 (Confirmation screen.)]; assay type: functional
[2] = growth inhibition of yeast DHODH-expressing 3D7 parasites – SYBR Green, dry powder samples, dose response (AID 1159570); assay type: functional, cell-based;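 further: parasite growth measured after 72 hours of compound exposure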
[3] = Dd2 malaria parasite growth inhibition potency – SYBR Green, dry powder samples, dose response (AID 1159566); assay type: functional, cell-based;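 further: potency for growth inhibition with lower SYBR green DNA signal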
[4] = P. falciparum Dd2 growth inhibitors, dose response, SYBR Green, cherry-picked samples (AID 1159567); assay type: functional, cell-based
[5] = growth inhibition of PfATP4-mutant resistant parasites – NITD609-resistant line, SYBR Green, dry powder, dose response (AID 1159571); assay type: functional, cell-based;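 further: parasites synchronized at ring stage by sorbitol before testing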
Leucine aminopeptidase = Leucine aminopeptidase (Plasmodium falciparum 3D7, UniProt Q8IL11); assay: P. falciparum M17LAP inhibitors, primary screen, biochemical, fluorogenic H-Leu-NHMec substrate, 1536-well (AID 1619); assay type: functional
Leucine aminopeptidase, sequence (Q8IL11 whole entry): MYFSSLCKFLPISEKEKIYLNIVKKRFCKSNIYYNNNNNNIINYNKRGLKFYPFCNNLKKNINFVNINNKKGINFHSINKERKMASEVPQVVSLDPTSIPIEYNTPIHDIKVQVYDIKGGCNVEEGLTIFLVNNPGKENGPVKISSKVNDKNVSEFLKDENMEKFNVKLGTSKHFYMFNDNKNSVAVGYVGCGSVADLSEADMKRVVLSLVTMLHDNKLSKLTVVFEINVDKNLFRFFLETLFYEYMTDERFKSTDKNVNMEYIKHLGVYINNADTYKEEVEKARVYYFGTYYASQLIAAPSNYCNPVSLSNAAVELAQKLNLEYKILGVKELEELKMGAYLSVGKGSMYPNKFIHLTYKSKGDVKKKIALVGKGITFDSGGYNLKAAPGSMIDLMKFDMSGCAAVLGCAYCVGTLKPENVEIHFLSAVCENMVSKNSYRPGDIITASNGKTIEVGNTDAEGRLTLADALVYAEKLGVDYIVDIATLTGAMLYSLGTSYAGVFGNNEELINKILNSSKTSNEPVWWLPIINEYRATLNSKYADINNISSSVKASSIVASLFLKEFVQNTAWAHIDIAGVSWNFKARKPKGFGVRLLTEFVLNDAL

Vero = assay: mammalian cell viability reduction – secondary assay, cytotoxicity control for West Nile virus antiviral project, dose response (AID 1650); assay type: functional; details: Chlorocebus sabaeus
[6] = Dd2 parasite growth inhibition in erythrocytes – SYBR Green, dry powder samples, set 9, dose response (AID 1159568); assay type: functional, cell-based
[7] = M. tuberculosis H37Rv growth inhibitors, H37Rv strain (AID 1626); assay type: functional
[8] = biological target: T1, Corticotropin-releasing factor receptor 2/Corticotropin-releasing factor-binding protein (Homo sapiens, UniProt P24387+Q13324); assay: activators of CRF receptor 2 with binding protein – uHTS hits, confirmation (AID 602473); assay type: functional; details: read-out: EC50_Mean
T1 sequence (Q13324 whole entry): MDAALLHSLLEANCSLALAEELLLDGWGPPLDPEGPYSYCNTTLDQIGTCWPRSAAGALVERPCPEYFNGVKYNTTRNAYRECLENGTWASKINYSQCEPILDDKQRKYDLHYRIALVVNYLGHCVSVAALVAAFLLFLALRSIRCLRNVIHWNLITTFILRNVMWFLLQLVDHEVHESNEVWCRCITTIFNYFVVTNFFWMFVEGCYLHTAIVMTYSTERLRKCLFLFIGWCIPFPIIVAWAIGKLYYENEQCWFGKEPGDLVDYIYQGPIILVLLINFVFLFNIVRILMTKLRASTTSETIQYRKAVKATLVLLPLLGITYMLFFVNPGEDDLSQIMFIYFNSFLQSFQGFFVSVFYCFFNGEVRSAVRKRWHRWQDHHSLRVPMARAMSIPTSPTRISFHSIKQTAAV
T1 sequence (P24387 whole entry): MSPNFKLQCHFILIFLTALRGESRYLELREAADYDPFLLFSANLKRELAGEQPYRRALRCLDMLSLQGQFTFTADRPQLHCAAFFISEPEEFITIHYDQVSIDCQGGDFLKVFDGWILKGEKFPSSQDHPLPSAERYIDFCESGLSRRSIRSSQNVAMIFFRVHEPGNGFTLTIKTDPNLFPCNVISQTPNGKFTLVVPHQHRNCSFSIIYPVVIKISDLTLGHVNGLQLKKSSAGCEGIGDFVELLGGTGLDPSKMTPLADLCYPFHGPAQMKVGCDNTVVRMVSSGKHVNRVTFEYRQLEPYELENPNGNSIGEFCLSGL

[9] = NIH3T3 cell viability loss – ATP luminescence, mouse fibroblasts, counter-screen, dose response (AID 2010); assay type: functional, cell-based;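 further: cells exposed to compound for about 90 hours before reading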
[10] = Trypanosoma cruzi growth suppression in host cells – NIH3T3 host cells, beta-gal luminescence, confirmation (AID 2044); assay type: functional, cell-based;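 further: intracellular parasites grown in NIH/3T3 mouse fibroblasts as host cells; luminescent beta-galactosidase reporter signal from transgenic T. cruzi replicating inside host cells; inhibitors lower the luminescence signal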
[11] = biological target: Voltage-gated inwardly rectifying potassium channel KCNH2 (Homo sapiens, UniProt Q12809); assay: concentration-dependent hERG rescue from blockers – cell-based, thallium flux, dose response (AID 2121); assay type: ADME
Voltage-gated inwardly rectifying potassium channel KCNH2, sequence (Q12809 whole entry): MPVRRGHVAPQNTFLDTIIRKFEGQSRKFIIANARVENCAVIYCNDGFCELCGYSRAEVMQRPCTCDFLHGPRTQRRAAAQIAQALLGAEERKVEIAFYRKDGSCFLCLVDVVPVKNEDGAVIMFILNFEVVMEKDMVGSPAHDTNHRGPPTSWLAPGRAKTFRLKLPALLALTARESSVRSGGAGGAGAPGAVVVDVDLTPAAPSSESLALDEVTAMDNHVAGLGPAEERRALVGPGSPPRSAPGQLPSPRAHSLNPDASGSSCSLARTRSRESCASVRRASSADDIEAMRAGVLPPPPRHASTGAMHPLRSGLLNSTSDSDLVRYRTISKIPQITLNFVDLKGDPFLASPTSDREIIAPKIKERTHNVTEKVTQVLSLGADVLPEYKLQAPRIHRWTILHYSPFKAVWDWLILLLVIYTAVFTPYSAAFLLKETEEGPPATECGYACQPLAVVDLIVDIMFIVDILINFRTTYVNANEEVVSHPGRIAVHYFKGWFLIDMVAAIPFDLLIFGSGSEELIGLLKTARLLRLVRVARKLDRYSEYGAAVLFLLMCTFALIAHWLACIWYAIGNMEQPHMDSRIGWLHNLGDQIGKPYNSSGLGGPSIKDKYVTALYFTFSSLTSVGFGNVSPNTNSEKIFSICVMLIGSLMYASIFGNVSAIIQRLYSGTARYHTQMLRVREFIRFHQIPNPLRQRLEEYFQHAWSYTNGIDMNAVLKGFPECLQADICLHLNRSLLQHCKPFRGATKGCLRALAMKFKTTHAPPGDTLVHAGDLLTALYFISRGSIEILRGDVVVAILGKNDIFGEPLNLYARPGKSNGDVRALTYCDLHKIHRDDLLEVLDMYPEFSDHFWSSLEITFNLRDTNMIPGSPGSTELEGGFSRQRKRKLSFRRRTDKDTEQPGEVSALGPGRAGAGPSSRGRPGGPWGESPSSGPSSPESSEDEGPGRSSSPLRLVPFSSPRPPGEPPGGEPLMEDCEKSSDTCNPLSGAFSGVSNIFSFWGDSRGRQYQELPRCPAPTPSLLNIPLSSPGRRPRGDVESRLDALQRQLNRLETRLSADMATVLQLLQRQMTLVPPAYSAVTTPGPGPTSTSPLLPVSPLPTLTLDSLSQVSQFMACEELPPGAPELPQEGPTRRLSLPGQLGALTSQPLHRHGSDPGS

C=C1[C@@H](C)[C@H]2[C@H](Cc3ccccc3)NC(=O)[C@]23OC(=O)/C=C/[C@H](O)CCC[C@@H](C)C/C=C/[C@H]3[C@@H]1O [CYTOCHALASIN B]
IC50 [1]: 0.424 µM (active)

COc1ccc2c3c(n(C)c2c1)[C@@H](CO)N(C(=O)c1ccc(F)cc1)CC31CN(C(=O)Nc2ccc(F)cc2)C1
AC50 [2]: 1.26 µM (active)
AC50 [3]: 1.22 µM (active)
AC50 [4]: 1.79 µM (active)
AC50 [5]: 0.999 µM (active)

N#Cc1ccsc1NC(=O)CSc1nnc[nH]1
IC50 (Leucine aminopeptidase): 10.7 µM (active)

Cc1ccc(C(OCC(O)CNC(C)c2ccccc2)c2ccccc2)cc1 (stereo not given)
CC50 (Vero): 18.9 µM (active)

C[C@@H]1CN([C@H](C)CO)C(=O)c2cc(NC(=O)Nc3ccc4c(c3)OCO4)ccc2O[C@@H](C)CCCCO[C@H]1CN(C)S(=O)(=O)c1ccccc1
AC50 [6]: 2.22 µM (active)

COc1ccc(NC(C#N)c2ccc(OC)cc2)cc1 (stereo not given)
IC50 [7]: > 100 µM (active)

Clc1ccc(-c2ccc(/C=N/c3ccc(N4CCOCC4)cc3)o2)c(Cl)c1
IC50 [7]: > 100 µM (active)
EC50 [8]: 6.68 µM (active)

O=[N+]([O-])c1ccc(NC2CCN(Cc3ccccc3)CC2)c2ccncc12
CC50 (Vero): > 100 µM (active)
EC50 [9]: > 60 µM (not active)
EC50 [10]: 0.811 µM (active)

CNC(=O)c1ccc(NC(=O)CN2c3cccc4cccc(c34)S2(=O)=O)cc1
EC50 [11]: 7.62 µM (active)
